Test results: patent publication US11135237B2, “Lipophosphonoxins of second generation, and their use” (USTAV ORGANICKE CHEMIE A BIOCHEMIE AV CR, V.V.I., priority 2016, dated 2021)
In brackets after ≈: the same amount, converted by molar mass.

What was measured:
E. faecium VanA 419ana = experiment: MIC, microdilution method, resistant strains; type: cell-based; conditions: Enterococcus faecium, VANA419ANA; vancomycin-resistant strain, clinical isolate
Procedure: (§1) Antibacterial activity was measured using a standard microdilution method, showing the minimum inhibitory concentration (MIC) of the test sample which results in inhibition of bacterial growth. Disposable microtiter plates were used for the tests. Samples are dissolved in the brain-heart infusion broth (HiMedia Laboraties Pvt. Ltd., Czech Republic), and Mueller Hinton broth (HiMedia Laboraties, see above) at a final concentration ranging from 200 μg/ml to 1.5625 μg/ml. Plates were inoculated with a standard amount of test bacteria—inoculum density in the hole corresponds to 10^5-6 CFU/ml (colony forming units/ml). MIC values are read after 24/48 hours of incubation at 37° C. as the minimum inhibitory concentration of the test substance at which the growth of bacteria is inhibited. Minimal bactericidal concentration (MBC) is defined as the minimum concentration of the sample needed to achieve irreversible inhibition, therefore killing the bacteria after a defined time of incubation. The MBC was determined by inoculation method. 10 μl from the wells in a microplate with a defined concentration of test substance is taken with an applicator, and inoculated onto the surface of blood agar (Trios, Czech Republic) and Sabouraud agar (Trios, CR). The MBC was determined as the lowest concentration that inhibited visible growth of the bacteria used.

S. haemolyticus 16568 = experiment: MIC, microdilution method, resistant strains; type: cell-based; conditions: Staphylococcus haemolyticus, fluoroquinolone-resistant strain, clinical isolate
Procedure: as §1

P. aeruginosa 16575 = experiment: MIC, microdilution method, resistant strains; type: cell-based; conditions: Pseudomonas aeruginosa, resistant strain, clinical isolate
Procedure: as §1

S. aureus MRSA 4591 = experiment: MIC, microdilution method, resistant strains; type: cell-based; conditions: Staphylococcus aureus, methicillin-resistant strain, clinical isolate
Procedure: as §1

S. epidermidis 8700B = experiment: MIC, microdilution method, resistant strains; type: cell-based; conditions: Staphylococcus epidermidis, methicilin-resistant strain, clinical isolate
Procedure: as §1

E. coli 16702 = experiment: MIC, microdilution method, resistant strains; type: cell-based; conditions: Escherichia coli, resistant strain, clinical isolate
Procedure: as §1

Streptococcus agalactiae = experiment: MIC, microdilution method, reference strains; type: cell-based; conditions: read after 24/48 hours of incubation at 37° C.
Procedure: as §1, with “bacteria-inoculum” for “bacteria—inoculum”, “used. Standard reference bacterial strains (Escherichia coli CCM 3954, Pseudomonas aeruginosa CCM 3955, Enterococcus faecalis CCM 4224, Staphylococcus aureus CCM 4223) were obtained from the Czech Collection of Microorganisms (CCM) at […] University in Brno. Streptococcus agalactiae, Bacillus subtilis were obtained from the University Hospital Olomouc. The tested microorganisms were maintained in cryobanks (ITEST plus, Czech Republic) at -80° C.” for “used.”

[1] = tested on: Enterococcus faecalis CCM 4224; experiment: MIC, microdilution method, reference strains; type: cell-based; conditions: CCM4224, read after 24/48 hours of incubation at 37° C.
Procedure: as §1, with “bacteria-inoculum” for “bacteria—inoculum”, “used. Standard reference bacterial strains (Escherichia coli CCM 3954, Pseudomonas aeruginosa CCM 3955, Enterococcus faecalis CCM 4224, Staphylococcus aureus CCM 4223) were obtained from the Czech Collection of Microorganisms (CCM) at […] University in Brno. Streptococcus agalactiae, Bacillus subtilis were obtained from the University Hospital Olomouc. The tested microorganisms were maintained in cryobanks (ITEST plus, Czech Republic) at -80° C.” for “used.”

[2] = tested on: Pseudomonas aeruginosa CCM 3955; experiment: MIC, microdilution method, reference strains; type: cell-based; conditions: CCM3955, read after 24/48 hours of incubation at 37° C.
Procedure: as §1, with “bacteria-inoculum” for “bacteria—inoculum”, “used. Standard reference bacterial strains (Escherichia coli CCM 3954, Pseudomonas aeruginosa CCM 3955, Enterococcus faecalis CCM 4224, Staphylococcus aureus CCM 4223) were obtained from the Czech Collection of Microorganisms (CCM) at […] University in Brno. Streptococcus agalactiae, Bacillus subtilis were obtained from the University Hospital Olomouc. The tested microorganisms were maintained in cryobanks (ITEST plus, Czech Republic) at -80° C.” for “used.”

[3] = tested on: Staphylococcus aureus CCM 4223; experiment: MIC, microdilution method, reference strains; type: cell-based; conditions: CCM4223, read after 24/48 hours of incubation at 37° C.
Procedure: as §1, with “bacteria-inoculum” for “bacteria—inoculum”, “used. Standard reference bacterial strains (Escherichia coli CCM 3954, Pseudomonas aeruginosa CCM 3955, Enterococcus faecalis CCM 4224, Staphylococcus aureus CCM 4223) were obtained from the Czech Collection of Microorganisms (CCM) at […] University in Brno. Streptococcus agalactiae, Bacillus subtilis were obtained from the University Hospital Olomouc. The tested microorganisms were maintained in cryobanks (ITEST plus, Czech Republic) at -80° C.” for “used.”

Bacillus subtilis = experiment: MIC, microdilution method, reference strains; type: cell-based; conditions: read after 24/48 hours of incubation at 37° C.
Procedure: as §1, with “bacteria-inoculum” for “bacteria—inoculum”, “used. Standard reference bacterial strains (Escherichia coli CCM 3954, Pseudomonas aeruginosa CCM 3955, Enterococcus faecalis CCM 4224, Staphylococcus aureus CCM 4223) were obtained from the Czech Collection of Microorganisms (CCM) at […] University in Brno. Streptococcus agalactiae, Bacillus subtilis were obtained from the University Hospital Olomouc. The tested microorganisms were maintained in cryobanks (ITEST plus, Czech Republic) at -80° C.” for “used.”

[4] = tested on: Escherichia coli CCM 3954; experiment: MIC, microdilution method, reference strains; type: cell-based; conditions: CCM3954, read after 24/48 hours of incubation at 37° C.
Procedure: as §1, with “bacteria-inoculum” for “bacteria—inoculum”, “used. Standard reference bacterial strains (Escherichia coli CCM 3954, Pseudomonas aeruginosa CCM 3955, Enterococcus faecalis CCM 4224, Staphylococcus aureus CCM 4223) were obtained from the Czech Collection of Microorganisms (CCM) at […] University in Brno. Streptococcus agalactiae, Bacillus subtilis were obtained from the University Hospital Olomouc. The tested microorganisms were maintained in cryobanks (ITEST plus, Czech Republic) at -80° C.” for “used.”

[5] = tested on: Stenotrophomonas matophilia S2-23; experiment: MIC, microdilution method; type: cell-based; conditions: S223, read after 24/48 hours of incubation at 37° C.
Procedure: as §1

[6] = tested on: Acinetobacter baumanii A3-08; experiment: MIC, microdilution method; type: cell-based; conditions: Acinetobacter baumannii, A308; read after 24/48 hours of incubation at 37° C.
Procedure: as §1

[7] = tested on: Burkholderia multivorans ATCC BAA-247; experiment: MIC, microdilution method; type: cell-based; conditions: ATCCBAA247, read after 24/48 hours of incubation at 37° C.
Procedure: as §1

[8] = tested on: Salmonella Enteritidis S2-25; experiment: MIC, microdilution method; type: cell-based; conditions: Salmonella enterica, read after 24/48 hours of incubation at 37° C.
Procedure: as §1

mice = experiment: Maximum tolerated dose in mice, oral administration; type: in vivo
Procedure: Maximum tolerated dose in mice was very high, for the compound of Example 3 and oral administration the maximum tolerated dose was 1500 mg/kg of bodyweight.

rabbits = experiment: OECD404 test for skin irritation in rabbits; type: in vivo

Row | MIC (E. faecium VanA 419ana) | MIC (P. aeruginosa 16575) | MIC (S. aureus MRSA 4591) | MIC (S. epidermidis 8700B) | MIC (E. coli 16702) | MIC (Streptococcus agalactiae) | MIC [1] | MIC [2] | MIC [3] | MIC (Bacillus subtilis) | MIC [4] | MIC [5] | MIC [6] | MIC [7] | MIC [8] | SMILES | MIC (S. haemolyticus 16568) | maximum tolerated dose (mice) | skin irritation (rabbits)
1 | 25 µg/mL (≈ 36.2 µM) | 3.12 µg/mL (≈ 4.53 µM) | 25 µg/mL (≈ 36.2 µM) | 3.12 µg/mL (≈ 4.53 µM) | 3.12 µg/mL (≈ 4.53 µM) | 3.12 µg/mL (≈ 4.53 µM) | 50 µg/mL (≈ 72.5 µM) | 6.25 µg/mL (≈ 9.06 µM) | 12.5 µg/mL (≈ 18.1 µM) | 0.78 µg/mL (≈ 1.13 µM) | 3.12 µg/mL (≈ 4.53 µM) | – | – | – | – | CCCCCCCCCCCCCCCCOP(=O)(CCN(CCCN)CCCN)OC[C@H]1O[C@@H](n2ccc(=O)[nH]c2=O)C(O)C1O (some centres unmarked) [Example 1, Hexadecyl-uridine-5′-yl-2-N-bis (3-aminopropyl)-2-aminoethyl phosphonate] | 3.12 µg/mL (≈ 4.53 µM) | – | –
2 | 25 µg/mL (≈ 37 µM) | 3.12 µg/mL (≈ 4.62 µM) | 12.5 µg/mL (≈ 18.5 µM) | 6.25 µg/mL (≈ 9.25 µM) | 6.25 µg/mL (≈ 9.25 µM) | 3.12 µg/mL (≈ 4.62 µM) | 50 µg/mL (≈ 74 µM) | 3.12 µg/mL (≈ 4.62 µM) | 6.25 µg/mL (≈ 9.25 µM) | 1.56 µg/mL (≈ 2.31 µM) | 6.25 µg/mL (≈ 9.25 µM) | 3.12 µg/mL (≈ 4.62 µM) | 6.25 µg/mL (≈ 9.25 µM) | 12.5 µg/mL (≈ 18.5 µM) | 3.12 µg/mL (≈ 4.62 µM) | CCCCCCCCCCCCCCCOP(=O)(CCN(CCCN)CCCN)OC[C@H]1O[C@@H](n2ccc(=O)[nH]c2=O)C(O)C1O (some centres unmarked) [Example 2, Pentadecyl-uridine-5′-yl-2-N-bis(3-aminopropyl)-2-aminoethyl phosphonate] | 3.12 µg/mL (≈ 4.62 µM) | – | –
3 | 100 µg/mL (≈ 154 µM) | 25 µg/mL (≈ 38.6 µM) | 25 µg/mL (≈ 38.6 µM) | 12.5 µg/mL (≈ 19.3 µM) | 50 µg/mL (≈ 77.2 µM) | 6.25 µg/mL (≈ 9.65 µM) | 50 µg/mL (≈ 77.2 µM) | 3.12 µg/mL (≈ 4.82 µM) | 12.5 µg/mL (≈ 19.3 µM) | 3.12 µg/mL (≈ 4.82 µM) | 25 µg/mL (≈ 38.6 µM) | 50 µg/mL (≈ 77.2 µM) | 50 µg/mL (≈ 77.2 µM) | 50 µg/mL (≈ 77.2 µM) | 50 µg/mL (≈ 77.2 µM) | CCCCCCCCCCCCCOP(=O)(CCN(CCCN)CCCN)OC[C@H]1O[C@@H](n2ccc(=O)[nH]c2=O)C(O)C1O (some centres unmarked) [Example 4, Tridecyl-uridine-5′-yl-2-N-bis (3-aminopropyl)-2-aminoethyl phosphonate] | 6.25 µg/mL (≈ 9.65 µM) | – | –
4 | 200 µg/mL (≈ 316 µM) | 12.5 µg/mL (≈ 19.7 µM) | 50 µg/mL (≈ 78.9 µM) | 12.5 µg/mL (≈ 19.7 µM) | 25 µg/mL (≈ 39.4 µM) | 12.5 µg/mL (≈ 19.7 µM) | 100 µg/mL (≈ 158 µM) | 3.12 µg/mL (≈ 4.93 µM) | 25 µg/mL (≈ 39.4 µM) | 3.12 µg/mL (≈ 4.93 µM) | 25 µg/mL (≈ 39.4 µM) | – | – | – | – | CCCCCCCCCCCCOP(=O)(CCN(CCCN)CCCN)OC[C@H]1O[C@@H](n2ccc(=O)[nH]c2=O)C(O)C1O (some centres unmarked) [Example 5, Dodecyl-uridine-5′-yl-2-N-bis (3-aminopropyl)-2-aminoethyl phosphonate] | 12.5 µg/mL (≈ 19.7 µM) | – | –

Row | SMILES | MIC (E. faecium VanA 419ana) | MIC (P. aeruginosa 16575) | MIC (S. aureus MRSA 4591) | MIC (S. epidermidis 8700B) | MIC (E. coli 16702) | MIC (Streptococcus agalactiae) | MIC [1] | MIC [2] | MIC [3] | MIC (Bacillus subtilis) | MIC [4] | MIC [5] | MIC [6] | MIC [7] | MIC [8] | MIC (S. haemolyticus 16568) | maximum tolerated dose (mice) | skin irritation (rabbits)
5 | CCCCCCCCCCCCCCOP(=O)(CCN(CCCN)CCCN)OC[C@H]1O[C@@H](n2ccc(=O)[nH]c2=O)C(O)C1O (some centres unmarked) [Example 3, Tetradecyl-uridine-5′-yl-2-N-bis (3-aminopropyl)-2-aminoethyl phosphonate] | 100 µg/mL (≈ 151 µM) | 1.56 µg/mL (≈ 2.36 µM) | 6.25 µg/mL (≈ 9.44 µM) | 1.56 µg/mL (≈ 2.36 µM) | 3.12 µg/mL (≈ 4.72 µM) | 3.12 µg/mL (≈ 4.72 µM) | 25 µg/mL (≈ 37.8 µM) | 0.78 µg/mL (≈ 1.18 µM) | 6.25 µg/mL (≈ 9.44 µM) | 0.78 µg/mL (≈ 1.18 µM) | 6.25 µg/mL (≈ 9.44 µM) | 50 µg/mL (≈ 75.5 µM) | 25 µg/mL (≈ 37.8 µM) | 200 µg/mL (≈ 302 µM) | 6.25 µg/mL (≈ 9.44 µM) | 1.56 µg/mL (≈ 2.36 µM) | 1500 mg/kg of bodyweight | not an irritant
